Test results published in patent US11000033B2, “Ketone or oxime compound, and herbicide” (NISSAN CHEMICAL CORPORATION, priority 2014, dated 2021).

How the values were obtained:
Assay type in all cases: in vivo
rice = assay: Test Example 4: effect on crop by soil treatment (symbol b); conditions: application herbicide amount 320 g/ha
In short: (§1)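 Plants grew in a 25° C. to 30° C. greenhouse after spot-sowing of seeds, including beet, rapeseed, wheat and rice, into sterilized diluvial soil under roughly 1.5 cm of cover soil.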

transplanted rice plant = assay: Test Example 1: effect on crop, application before weed generation in submerged conditions (symbol a); conditions: application herbicide amount 320 g/ha
In short: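 Rice at 2.5 leaf stage transplanted into submerged soil (4 cm depth) sown with three weed species; herbicide applied before weed emergence.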

Veronica persica = assay: Test Example 5: herbicidal effect by foliage application, plastic box (symbol R); conditions: 320 g/ha, 3 weeks after application
In short: (§2)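 Emulsion formulation, diluted with water to the intended rate, was applied uniformly to leaves by small sprayer. Recipients were 14-day greenhouse-grown seedlings (25° C. to 30° C.). Assessment followed at 3 weeks.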

[1] = tested on: Echinochloa crus-galli var. crus-galli; assay: Test Example 5: herbicidal effect by foliage application, plastic box (symbol H); conditions: 320 g/ha, 3 weeks after application
In short: as §2

rapeseed = assay: Test Example 5: effect on crop by foliage application, plastic box (symbol g); conditions: 320 g/ha, 3 weeks after application
In short: (§3)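 Sterilized diluvial soil, plastic box (21 × 13 × 7 cm); spot sowing, ~1.5 cm soil cover; greenhouse 25–30° C.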

Monochoria vaginalis = assay: Test Example 2: herbicidal activity, application during weed generation in submerged conditions (symbol C); conditions: Table 23; application herbicide amount 320 g/ha; grade 0-5 by criteria of Test Example 1
In short: (§4)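 Paddy pot test, submerged (4 cm water), alluvial soil, mixed sowing; greenhouse 25–30° C. Emulsion formulation diluted to predetermined rate, applied onto floodwater at 1–2 leaf stage. Visual herbicidal rating at 3 wk post-treatment.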

soybean [2] = assay: Test Example 5: effect on crop by foliage application, plastic box (symbol d); conditions: 320 g/ha, 3 weeks after application
In short: as §3

Amaranthus retroflexus = assay: Test Example 5: herbicidal effect by foliage application, plastic box (symbol N); conditions: 320 g/ha, 3 weeks after application
In short: as §2

beet = assay: Test Example 4: effect on crop by soil treatment (symbol f); conditions: application herbicide amount 320 g/ha
In short: as §1

corn = assay: Test Example 5: effect on crop by foliage application, plastic box (symbol c); conditions: 320 g/ha, 3 weeks after application
In short: as §3

Digitaria ciliaris = assay: Test Example 5: herbicidal effect by foliage application, plastic box (symbol F); conditions: 320 g/ha, 3 weeks after application
In short: as §2

wheat = assay: Test Example 4: effect on crop by soil treatment (symbol e); conditions: application herbicide amount 320 g/ha
In short: as §1

Abutilon theophrasti = assay: Test Example 4: herbicidal effect by soil treatment (symbol M); conditions: application herbicide amount 320 g/ha
In short: (§5)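 Seeds were sown in sterilized diluvial soil, covered with about 1.5 cm of soil, and the soil surface was sprayed with a water-diluted emulsion of the compound at a predetermined rate. Plants grew in a greenhouse at 25° C. to 30° C.; effects were scored visually 3 weeks after application.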

Lolium multiflorum Lam. [3] = assay: Test Example 4: herbicidal effect by soil treatment (symbol K); conditions: application herbicide amount 320 g/ha
In short: as §5

[4] = tested on: Echinochloa crus-galli var. crus-galli; assay: Test Example 4: herbicidal effect by soil treatment (symbol H); conditions: application herbicide amount 320 g/ha
In short: as §5

Lolium multiflorum Lam. [5] = assay: Test Example 5: herbicidal effect by foliage application, plastic box (symbol K); conditions: 320 g/ha, 3 weeks after application
In short: as §2

soybean [6] = assay: Test Example 4: effect on crop by soil treatment (symbol d); conditions: application herbicide amount 320 g/ha
In short: as §1

Scirpus juncoides = assay: Test Example 2: herbicidal activity, application during weed generation in submerged conditions (symbol B); conditions: Table 23; application herbicide amount 320 g/ha; grade 0-5 by criteria of Test Example 1
In short: as §4

Avena fatua = assay: Test Example 4: herbicidal effect by soil treatment (symbol I); conditions: application herbicide amount 320 g/ha
In short: as §5

SMILES	b (directly sowed rice plant) effect on crop grade (rice)	Effect grade on crop, a: transplanted rice plant (transplanted rice plant)	R: Veronica persica, herbicidal effect grade (Veronica persica)	H: Echinochloa crus-galli var. crus-galli, herbicidal effect grade [1]	g: rapeseed, effect on crop grade (rapeseed)	Herbicidal effect grade, C: Monochoria vaginalis (Monochoria vaginalis)	d: soybean, effect on crop grade (soybean [2])	N: Amaranthus retroflexus, herbicidal effect grade (Amaranthus retroflexus)	f (beet) effect on crop grade (beet)	c: corn, effect on crop grade (corn)	F: Digitaria ciliaris, herbicidal effect grade (Digitaria ciliaris)	e (wheat) effect on crop grade (wheat)	M (Abutilon theophrasti) herbicidal effect grade (Abutilon theophrasti)	K (Lolium multiflorum Lam.) herbicidal effect grade (Lolium multiflorum Lam. [3])	H (Echinochloa crus-galli var. crus-galli) herbicidal effect grade [4]	K: Lolium multiflorum Lam., herbicidal effect grade (Lolium multiflorum Lam. [5])	d (soybean) effect on crop grade (soybean [6])	Herbicidal effect grade, B: Scirpus juncoides (Scirpus juncoides)	I (Avena fatua) herbicidal effect grade (Avena fatua)
CCC(C)C(CC1CC(O)=C(c2c(C)cc(C)cc2C)C1=O)=NOC (stereo not shown) [1-066]	5 (Herbicidal ratio of 90% or more (almost completely withered))	5 (Herbicidal ratio of 90% or more (almost completely withered))	3 (Herbicidal ratio of 40% or higher and lower than 70%)	5 (Herbicidal ratio of 90% or more (almost completely withered))	3 (Herbicidal ratio of 40% or higher and lower than 70%)	0 (Herbicidal ratio of 5% or lower (almost no effect))	0 (Herbicidal ratio of 5% or lower (almost no effect))	0 (Herbicidal ratio of 5% or lower (almost no effect))	0 (Herbicidal ratio of 5% or lower (almost no effect))	4 (Herbicidal ratio of 70% or higher and lower than 90%)	4 (Herbicidal ratio of 70% or higher and lower than 90%)	0 (Herbicidal ratio of 5% or lower (almost no effect))	0 (Herbicidal ratio of 5% or lower (almost no effect))	5 (Herbicidal ratio of 90% or more (almost completely withered))	5 (Herbicidal ratio of 90% or more (almost completely withered))	5 (Herbicidal ratio of 90% or more (almost completely withered))	0 (Herbicidal ratio of 5% or lower (almost no effect))	0 (Herbicidal ratio of 5% or lower (almost no effect))	0 (Herbicidal ratio of 5% or lower (almost no effect))
CON=C(C)CC1CC(OC(=O)COc2ccccc2OC)=C(c2c(C)cc(C)cc2C)C1=O (stereo not shown) [1-067]	5 (Herbicidal ratio of 90% or more (almost completely withered))	5 (Herbicidal ratio of 90% or more (almost completely withered))	3 (Herbicidal ratio of 40% or higher and lower than 70%)	5 (Herbicidal ratio of 90% or more (almost completely withered))	4 (Herbicidal ratio of 70% or higher and lower than 90%)	2 (Herbicidal ratio of 20% or higher and lower than 40%)	4 (Herbicidal ratio of 70% or higher and lower than 90%)	4 (Herbicidal ratio of 70% or higher and lower than 90%)	0 (Herbicidal ratio of 5% or lower (almost no effect))	5 (Herbicidal ratio of 90% or more (almost completely withered))	5 (Herbicidal ratio of 90% or more (almost completely withered))	5 (Herbicidal ratio of 90% or more (almost completely withered))	5 (Herbicidal ratio of 90% or more (almost completely withered))	5 (Herbicidal ratio of 90% or more (almost completely withered))	5 (Herbicidal ratio of 90% or more (almost completely withered))	3 (Herbicidal ratio of 40% or higher and lower than 70%)	0 (Herbicidal ratio of 5% or lower (almost no effect))	4 (Herbicidal ratio of 70% or higher and lower than 90%)	3 (Herbicidal ratio of 40% or higher and lower than 70%)
CON=C(C)CC1CC(OC(=O)COc2cccc(OC)c2)=C(c2c(C)cc(C)cc2C)C1=O (stereo not shown) [1-068]	5 (Herbicidal ratio of 90% or more (almost completely withered))	5 (Herbicidal ratio of 90% or more (almost completely withered))	3 (Herbicidal ratio of 40% or higher and lower than 70%)	5 (Herbicidal ratio of 90% or more (almost completely withered))	4 (Herbicidal ratio of 70% or higher and lower than 90%)	3 (Herbicidal ratio of 40% or higher and lower than 70%)	4 (Herbicidal ratio of 70% or higher and lower than 90%)	4 (Herbicidal ratio of 70% or higher and lower than 90%)	0 (Herbicidal ratio of 5% or lower (almost no effect))	5 (Herbicidal ratio of 90% or more (almost completely withered))	5 (Herbicidal ratio of 90% or more (almost completely withered))	4 (Herbicidal ratio of 70% or higher and lower than 90%)	4 (Herbicidal ratio of 70% or higher and lower than 90%)	5 (Herbicidal ratio of 90% or more (almost completely withered))	5 (Herbicidal ratio of 90% or more (almost completely withered))	5 (Herbicidal ratio of 90% or more (almost completely withered))	0 (Herbicidal ratio of 5% or lower (almost no effect))	5 (Herbicidal ratio of 90% or more (almost completely withered))	3 (Herbicidal ratio of 40% or higher and lower than 70%)
CON=C(C)CC1CC(OC(=O)COc2ccc(OC)cc2)=C(c2c(C)cc(C)cc2C)C1=O (stereo not shown) [1-069]	5 (Herbicidal ratio of 90% or more (almost completely withered))	5 (Herbicidal ratio of 90% or more (almost completely withered))	3 (Herbicidal ratio of 40% or higher and lower than 70%)	5 (Herbicidal ratio of 90% or more (almost completely withered))	4 (Herbicidal ratio of 70% or higher and lower than 90%)	3 (Herbicidal ratio of 40% or higher and lower than 70%)	4 (Herbicidal ratio of 70% or higher and lower than 90%)	5 (Herbicidal ratio of 90% or more (almost completely withered))	0 (Herbicidal ratio of 5% or lower (almost no effect))	3 (Herbicidal ratio of 40% or higher and lower than 70%)	5 (Herbicidal ratio of 90% or more (almost completely withered))	4 (Herbicidal ratio of 70% or higher and lower than 90%)	4 (Herbicidal ratio of 70% or higher and lower than 90%)	5 (Herbicidal ratio of 90% or more (almost completely withered))	5 (Herbicidal ratio of 90% or more (almost completely withered))	5 (Herbicidal ratio of 90% or more (almost completely withered))	0 (Herbicidal ratio of 5% or lower (almost no effect))	4 (Herbicidal ratio of 70% or higher and lower than 90%)	3 (Herbicidal ratio of 40% or higher and lower than 70%)
